Reference: patent US6031006A, “Method of treating diabetic nephropathy” (BioNumerik Pharmaceuticals, Inc., priority 1999, dated 2000)

Key:
humans = details: cited from earlier work
[1] = target: T1, aldose reductase (human recombinant, expressed in SF 9 cells) (Homo sapiens, UniProt P15121); experiment: Aldose reductase assay, reduction of glucose to sorbitol (NADPH oxidation, absorbance at 340 nm); type: biochemical
Method: (§1) Aldose reductase assays were as described in Nishimura C., Yamaoka T., Mizutani M., Yamashita K., Akera T., Tanimoto T., Purification And Characterization Of The Recombinant Human Aldose Reductase Expressed In Baculovirus System, Biochem. Biophys. Acta, Jun. 24, 1991; 1078(2):171-8.
(§2) Briefly, Dimesna (0-20 μM) was incubated at 37° C. with aldose reductase (0.0016 units, human recombinant, expressed in SF 9 cells) and NADPH (0.15 mM) in sodium phosphate buffer (100 mM, pH 6.2). To initiate assays, glucose (10-150 mM) was added to reactions and the decrease in absorbance at 340 nm (oxidation of NADPH) was monitored. Assays were run in duplicate or triplicate. Slopes were calculated using Varian-Cary software package 2.0 and averaged. In all cases errors were 4% or less. Lineweaver Burk analysis (Enzyme Kinetics, version 1.61) was used to calculate inhibition constants.

[2] = target: T1, aldose reductase (human recombinant, expressed in SF 9 cells); experiment: Aldose reductase assay, NADPH dependent reduction of glyceraldehyde; type: biochemical; details: substrate glyceraldehyde 0.050-6 mM, 37° C., Lineweaver Burk analysis, read-out: Ki, inhibition of aldose reductase catalyzed reduction of glyceraldehyde to aldose
Method: as §1, §2
Aldose reductase assays were as described above. Dimesna (0-30 mM) was evaluated for its effect on the NADPH dependent reduction of glyceraldehyde (0.050-6 mM) to aldose at 37° C. Assays were run in duplicate or triplicate. Slopes were calculated using Varian-Cary software package 2.0 and averaged. In all cases errors were 4% or less. Lineweaver Burk analysis (Enzyme Kinetics, version 1.61) was used to calculate inhibition constants.

mice = details: intravenous; cited from earlier work
dogs = details: intravenous; cited from earlier work
[3] = accepted value; cited from earlier work

| Structure (SMILES) | Dose administered with no adverse effects (humans) | Type of inhibition of the aldose reductase reaction ([1]; Lineweaver Burk plots nearly parallel, glucose and glyceraldehyde substrates) | Ki ([1]; substrate glucose 10-150 mM, NADPH 0.15 mM, pH 6.2, 37° C., Lineweaver Burk analysis, read-out: Ki, inhibition of aldose reductase catalyzed reduction of glucose to sorbitol) [µM] | Ki [2] [µM] | Dose administered with no adverse effects (mice) [mg/kg] | Dose administered with no adverse effects (dogs) [mg/kg] | oral LD50 [3] [mg/kg] |
| --- | --- | --- | --- | --- | --- | --- | --- |
| O=S(=O)([O-])CCSSCCS(=O)(=O)[O-].[Na+].[Na+] [Dimesna, disodium 2,2'-dithiobis ethane sulfonate] | exceeding 15 g/m^2 | uncompetitive inhibition | 32 | 15.5 | > 3750 | > 3750 |  |
| [Cl-].[Na+] [common table salt] |  |  |  |  |  |  | 3750 |
